Measured values published in patent US9255088B2, “Premature-termination-codons readthrough compounds” (The Regents of the University of California, priority 2010, dated 2016).

Legend:
Type in all cases: in vivo, mouse
[1] = system: mdx mice; test: Serum creatine kinase (CK) in treated mdx mice; conditions: treated mdx mice vs controls
[2] = system: dystrophin in muscles of mdx mice; test: Dystrophin expression after systemic (intraperitoneal) administration to mdx mice; conditions: 300 mg/kg, three weeks
Experimental: In these studies, animals were injected intraperitoneally with RTC#13 at a concentration of 300 mg/kg for three weeks with a wash out period of 5 days between each treatment. Mice were allowed to recover for three weeks and muscles were analyzed for dystrophin expression. […] Expression varied between different muscle groups. Dystrophin was prominent in diaphragm and heart, two of the tissues most affected in DMD patients.
The dystrophin protein produced in muscle fibers was functionally active and was able to restore β-dystroglycan expression, a major component of the dystrophin glycoprotein complex (DGC) that is missing in mdx mice and in human patients as the result of the lack of dystrophin expression.

[3] = system: mdx mice; test: Forelimbs grip test and wire test in mdx mice
Experimental: Mdx mice were injected intraperitoneally with RTC#13 or vehicle only for three weeks and analyzed two weeks later. In FIG. 19a, muscle strength in treated and untreated mice was determined using the grip test. The top three of five consecutive pulls were averaged to calculate the absolute strength which was then divided by the body weight (BW) in grams. Results were compared to those obtained in wild type (C57) mice. […] (*: p≦0.01; **: p≦0.001). […] (*: p≦0.005; **: p≦0.001).

N=C1NC(=O)C(=Cc2ccc(-c3ccccc3[N+](=O)[O-])o2)S1 [RTC13, 2-imino-5-{[5-(2-nitrophenyl)-2-furyl]methylene}-1,3-thiazolidin-4-one]
serum creatine kinase (CK) levels [1]: significant difference in the CK levels | full-length dystrophin by Western blot after systemic administration [2]: presence of full-length dystrophin in all tissues | wire test ([3]; compared with DMSO only): able to hold on a wire for much longer | muscle strength, grip test ([3]; intraperitoneal for three weeks, analyzed two weeks later): significant recovery in muscle strength
